Two compounds from ChEMBL document CHEMBL4732114, “Design and structural optimization of novel 2H-benzo[h]chromene derivatives that target AcrB and reverse bacterial multidrug resistance” (Eur J Med Chem, 2021) can be followed below.

Structures are written as SMILES. In brackets after ≈: the same amount, converted by molar mass.

In test [1] the target is T1, Multidrug efflux pump subunit AcrB (Escherichia coli (strain K12)) (UniProt P31224).
T1 sequence (whole entry): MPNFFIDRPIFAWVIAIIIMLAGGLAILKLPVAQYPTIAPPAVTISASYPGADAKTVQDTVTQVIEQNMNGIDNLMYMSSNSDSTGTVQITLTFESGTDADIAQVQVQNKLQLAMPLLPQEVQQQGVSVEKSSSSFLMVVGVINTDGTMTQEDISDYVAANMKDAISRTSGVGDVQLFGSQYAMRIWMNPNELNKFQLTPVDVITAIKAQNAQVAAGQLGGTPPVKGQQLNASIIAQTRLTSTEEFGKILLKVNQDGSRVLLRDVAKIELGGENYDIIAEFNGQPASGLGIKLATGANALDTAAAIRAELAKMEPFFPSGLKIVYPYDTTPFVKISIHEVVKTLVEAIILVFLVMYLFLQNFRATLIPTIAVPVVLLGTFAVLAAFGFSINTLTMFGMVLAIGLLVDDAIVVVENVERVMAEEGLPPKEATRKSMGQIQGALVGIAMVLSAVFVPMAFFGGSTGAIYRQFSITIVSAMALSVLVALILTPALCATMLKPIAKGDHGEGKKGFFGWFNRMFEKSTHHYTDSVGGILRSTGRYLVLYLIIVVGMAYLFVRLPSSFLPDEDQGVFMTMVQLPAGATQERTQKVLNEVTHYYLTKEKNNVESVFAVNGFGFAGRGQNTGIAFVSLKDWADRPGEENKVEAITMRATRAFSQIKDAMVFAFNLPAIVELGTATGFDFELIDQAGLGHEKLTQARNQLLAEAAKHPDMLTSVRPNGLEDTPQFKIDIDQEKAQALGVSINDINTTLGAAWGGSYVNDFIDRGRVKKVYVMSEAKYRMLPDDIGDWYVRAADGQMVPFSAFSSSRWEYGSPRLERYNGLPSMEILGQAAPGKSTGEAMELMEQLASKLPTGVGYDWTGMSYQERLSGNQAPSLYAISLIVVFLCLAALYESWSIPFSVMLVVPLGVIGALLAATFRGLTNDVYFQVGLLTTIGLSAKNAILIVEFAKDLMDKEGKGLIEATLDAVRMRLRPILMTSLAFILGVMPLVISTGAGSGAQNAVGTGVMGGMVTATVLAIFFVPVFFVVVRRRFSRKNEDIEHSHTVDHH
Nature of the test: Inhibition of AcrB in multidrug-resistant Escherichia coli BW25113 assessed as potentiation of chloramphenicol-induced antibacterial activity by measuring chloramphenicol MIC at 256 ug/ml by checkerboard titration method (reference value: 8 ug/ml). The note with it: dose 256.0 µg/ml.

Test [2] concerns the target T1, Multidrug efflux pump subunit AcrB (Escherichia coli (strain K12)). As to the kind of experiment: Inhibition of AcrB in multidrug-resistant Escherichia coli BW25113 assessed as potentiation of chloramphenicol-induced antibacterial activity by measuring chloramphenicol MIC at 512 ug/ml by checkerboard titration method (reference value: 8 ug/ml). As to conditions: dose 512.0 µg/ml.

The target is the same in test [3]. As to the kind of experiment: Inhibition of AcrB in multidrug-resistant Escherichia coli BW25113 assessed as potentiation of erythromycin-induced antibacterial activity by measuring erythromycin MIC at 256 ug/ml by checkerboard titration method (reference value: 64 ug/ml). As to conditions: dose 256.0 µg/ml.
For test [4] the target is unchanged. Nature of the test: Inhibition of AcrB in multidrug-resistant Escherichia coli BW25113 assessed as potentiation of erythromycin-induced antibacterial activity by measuring erythromycin MIC at 512 ug/ml by checkerboard titration method (reference value: 64 ug/ml). The note with it: dose 512.0 µg/ml.
For test [5] the target is unchanged. Nature of the test: Inhibition of AcrB in multidrug-resistant Escherichia coli BW25113 assessed as potentiation of tetraphenylphosphonium-induced antibacterial activity by measuring tetraphenylphosphonium MIC at 256 ug/ml by checkerboard titration method (reference value: 1024 ug/ml). The note with it: dose 256.0 µg/ml.
For test [6] the target is unchanged. As to the kind of experiment: Inhibition of AcrB in multidrug-resistant Escherichia coli BW25113 assessed as potentiation of tetraphenylphosphonium-induced antibacterial activity by measuring tetraphenylphosphonium MIC at 512 ug/ml by checkerboard titration method (reference value: 1024 ug/ml). As to conditions: dose 512.0 µg/ml.
Test [7] has the same target. As to the kind of experiment: Inhibition of AcrB in multidrug-resistant Escherichia coli BW25113 assessed as potentiation of levofloxacin-induced antibacterial activity by measuring levofloxacin MIC at 256 ug/ml by checkerboard titration method (reference value: 0.06 ug/ml). The note with it: dose 256.0 µg/ml.
Test [8] shares this target. As to the kind of experiment: Inhibition of AcrB in multidrug-resistant Escherichia coli BW25113 assessed as potentiation of levofloxacin-induced antibacterial activity by measuring levofloxacin MIC at 512 ug/ml by checkerboard titration method (reference value: 0.06 ug/ml). As to conditions: dose 512.0 µg/ml.
Test [9] has the same target. The note with it: Escherichia coli BW25113; dose 256.0 µg/ml.
Test [10] has the same target. As to conditions: Escherichia coli BW25113; dose 512.0 µg/ml.
For test [11] the target is unchanged. Nature of the test: Inhibition of AcrB in multidrug-resistant Escherichia coli BW25113 assessed as potentiation of chloramphenicol-induced antibacterial activity by measuring chloramphenicol MIC at 16 ug/ml by checkerboard titration method (reference value: 8 ug/ml). The note with it: dose 16.0 µg/ml.
The target is the same in test [12]. Nature of the test: Inhibition of AcrB in multidrug-resistant Escherichia coli BW25113 assessed as potentiation of chloramphenicol-induced antibacterial activity by measuring chloramphenicol MIC at 32 ug/ml by checkerboard titration method (reference value: 8 ug/ml). As to conditions: dose 32.0 µg/ml.
For test [13] the target is unchanged. Nature of the test: Inhibition of AcrB in multidrug-resistant Escherichia coli BW25113 assessed as potentiation of chloramphenicol-induced antibacterial activity by measuring chloramphenicol MIC at 64 ug/ml by checkerboard titration method (reference value: 8 ug/ml). The note with it: dose 64.0 µg/ml.
The target is the same in test [14]. As to the kind of experiment: Inhibition of AcrB in multidrug-resistant Escherichia coli BW25113 assessed as potentiation of chloramphenicol-induced antibacterial activity by measuring chloramphenicol MIC at 128 ug/ml by checkerboard titration method (reference value: 8 ug/ml). The note with it: dose 128.0 µg/ml.
For test [15] the target is unchanged. Nature of the test: Inhibition of AcrB in multidrug-resistant Escherichia coli BW25113 assessed as potentiation of erythromycin-induced antibacterial activity by measuring erythromycin MIC at 16 ug/ml by checkerboard titration method (reference value: 64 ug/ml). The note with it: dose 16.0 µg/ml.
The target is the same in test [16]. As to the kind of experiment: Inhibition of AcrB in multidrug-resistant Escherichia coli BW25113 assessed as potentiation of erythromycin-induced antibacterial activity by measuring erythromycin MIC at 32 ug/ml by checkerboard titration method (reference value: 64 ug/ml). As to conditions: dose 32.0 µg/ml.
The target is the same in test [17]. Nature of the test: Inhibition of AcrB in multidrug-resistant Escherichia coli BW25113 assessed as potentiation of erythromycin-induced antibacterial activity by measuring erythromycin MIC at 64 ug/ml by checkerboard titration method (reference value: 64 ug/ml). As to conditions: dose 64.0 µg/ml.
For test [18] the target is unchanged. As to the kind of experiment: Inhibition of AcrB in multidrug-resistant Escherichia coli BW25113 assessed as potentiation of erythromycin-induced antibacterial activity by measuring erythromycin MIC at 128 ug/ml by checkerboard titration method (reference value: 64 ug/ml). As to conditions: dose 128.0 µg/ml.
Test [19] has the same target. As to the kind of experiment: Inhibition of AcrB in multidrug-resistant Escherichia coli BW25113 assessed as potentiation of tetraphenylphosphonium-induced antibacterial activity by measuring tetraphenylphosphonium MIC at 16 ug/ml by checkerboard titration method (reference value: 1024 ug/ml). As to conditions: dose 16.0 µg/ml.
Test [20] shares this target. As to the kind of experiment: Inhibition of AcrB in multidrug-resistant Escherichia coli BW25113 assessed as potentiation of tetraphenylphosphonium-induced antibacterial activity by measuring tetraphenylphosphonium MIC at 32 ug/ml by checkerboard titration method (reference value: 1024 ug/ml). The note with it: dose 32.0 µg/ml.
Test [21] has the same target. Nature of the test: Inhibition of AcrB in multidrug-resistant Escherichia coli BW25113 assessed as potentiation of tetraphenylphosphonium-induced antibacterial activity by measuring tetraphenylphosphonium MIC at 64 ug/ml by checkerboard titration method (reference value: 1024 ug/ml). As to conditions: dose 64.0 µg/ml.
Test [22] shares this target. As to the kind of experiment: Inhibition of AcrB in multidrug-resistant Escherichia coli BW25113 assessed as potentiation of tetraphenylphosphonium-induced antibacterial activity by measuring tetraphenylphosphonium MIC at 128 ug/ml by checkerboard titration method (reference value: 1024 ug/ml). The note with it: dose 128.0 µg/ml.
The target is the same in test [23]. Nature of the test: Inhibition of AcrB in multidrug-resistant Escherichia coli BW25113 assessed as potentiation of levofloxacin-induced antibacterial activity by measuring levofloxacin MIC at 16 ug/ml by checkerboard titration method (reference value: 0.06 ug/ml). The note with it: dose 16.0 µg/ml.
The target is the same in test [24]. As to the kind of experiment: Inhibition of AcrB in multidrug-resistant Escherichia coli BW25113 assessed as potentiation of levofloxacin-induced antibacterial activity by measuring levofloxacin MIC at 32 ug/ml by checkerboard titration method (reference value: 0.06 ug/ml). As to conditions: dose 32.0 µg/ml.
Test [25] shares this target. As to the kind of experiment: Inhibition of AcrB in multidrug-resistant Escherichia coli BW25113 assessed as potentiation of levofloxacin-induced antibacterial activity by measuring levofloxacin MIC at 64 ug/ml by checkerboard titration method (reference value: 0.06 ug/ml). As to conditions: dose 64.0 µg/ml.
The target is the same in test [26]. Nature of the test: Inhibition of AcrB in multidrug-resistant Escherichia coli BW25113 assessed as potentiation of levofloxacin-induced antibacterial activity by measuring levofloxacin MIC at 128 ug/ml by checkerboard titration method (reference value: 0.06 ug/ml). The note with it: dose 128.0 µg/ml.
The target is the same in test [27]. The note with it: Escherichia coli BW25113; dose 16.0 µg/ml.
For test [28] the target is unchanged. As to conditions: Escherichia coli BW25113; dose 32.0 µg/ml.
Test [29] has the same target. The note with it: Escherichia coli BW25113; dose 64.0 µg/ml.
The target is the same in test [30]. The note with it: Escherichia coli BW25113; dose 128.0 µg/ml.

For `CC(C)CCOc1cc(C(N)=O)cc2ccccc12`, the MIC was found to be 8 µg/mL in [1]; 4 µg/mL in test [2]; 64 µg/mL in test [3]; 32 µg/mL in [4]; 512 µg/mL in test [5]; 256 µg/mL in [6]. The MIC in test [7] stood at 0.06 µg/mL; in [8], 0.06 µg/mL; in test [9], 16 µg/mL (≈ 62.2 µM); in test [10] it was 16 µg/mL (≈ 62.2 µM).
As for `C[C@@H](Cc1ccc(O)c(O)c1)[C@@H](C)Cc1ccc(O)c(O)c1`, the MIC in test [11] was 8 µg/mL; in test [12], 8 µg/mL; in [13], 8 µg/mL; in test [14] it was 4 µg/mL; in test [1] it was 2 µg/mL; in test [15], 64 µg/mL. Besides, the MIC came to 64 µg/mL in test [16]; 64 µg/mL in test [17]; 64 µg/mL in test [18]; 32 µg/mL in test [3]; 1020 µg/mL in test [19]; 1020 µg/mL in test [20]. For the same compound, the MIC was found to be 1020 µg/mL in test [21]; 128 µg/mL in test [22]; 64 µg/mL in test [5]; 0.06 µg/mL in test [23]; 0.06 µg/mL in test [24]; 0.03 µg/mL in test [25]. The MIC is 0.03 µg/mL in test [26]; 0.03 µg/mL in test [7]; 16 µg/mL (≈ 52.9 µM) in test [27]; 16 µg/mL (≈ 52.9 µM) in test [28]; 16 µg/mL (≈ 52.9 µM) in test [29]; 16 µg/mL (≈ 52.9 µM) in [30]. In addition, the MIC in test [9] amounted to 16 µg/mL (≈ 52.9 µM).
